This test addresses CRBN (Homo sapiens (Human), UniProt Q96SW2). Kind of test: Cellular CRBN dBET6 displacement assay (BRD4BD2-GFP/mCherry reporter cells). Format: cell-based. The settings on record: 100 nM dBET6, 5 hours. The method, then: BRD4BD2 were subcloned into mammalian pcDNA5/FRT Vector (Ampicillin and Hygromycin B resistant) modified to contain MCS-eGFP-P2A-mCherry. […] Following a 2-3 passage cycle, FACS (FACSAria™ II, BD) was used to enrich for cells expressing eGFP and mCherry.
Signal from minimal 3000 events per well was acquired and the eGFP and mCherry florescence monitored. Data was analyzed using FlowJo® (FlowJo®, LCC). […] The eGFP protein abundance relative to mCherry was then quantified as a ten-fold amplified ratio for each individual cell using the formula: 10×eGFP/mCherry. The median of the ratio was then calculated per set, normalized to the median of the DMSO ratio.
This assay provided a readout of cellular CRBN binding impacted by the permeability of the molecule tested.

Setting [1] is: Flip-In 293 cells stably expressing BRD4BD2-GFP.
Setting [2] is: Flip-In 293 cells stably expressing BRD4BD2-GFP, read-out: Cellular CRBN-BRD4 dBET6 displacement EC50.
The mark [3] stands for this setting: unit printed as 'M' in the text (Table 1 gives μM), read-out: Cellular CRBN engagement EC50.

Entries after “also recorded” stand apart in the source; their conditions may differ. Where two headings read alike, the source gives them in different places.

Sequence of CRBN (Q96SW2 whole entry): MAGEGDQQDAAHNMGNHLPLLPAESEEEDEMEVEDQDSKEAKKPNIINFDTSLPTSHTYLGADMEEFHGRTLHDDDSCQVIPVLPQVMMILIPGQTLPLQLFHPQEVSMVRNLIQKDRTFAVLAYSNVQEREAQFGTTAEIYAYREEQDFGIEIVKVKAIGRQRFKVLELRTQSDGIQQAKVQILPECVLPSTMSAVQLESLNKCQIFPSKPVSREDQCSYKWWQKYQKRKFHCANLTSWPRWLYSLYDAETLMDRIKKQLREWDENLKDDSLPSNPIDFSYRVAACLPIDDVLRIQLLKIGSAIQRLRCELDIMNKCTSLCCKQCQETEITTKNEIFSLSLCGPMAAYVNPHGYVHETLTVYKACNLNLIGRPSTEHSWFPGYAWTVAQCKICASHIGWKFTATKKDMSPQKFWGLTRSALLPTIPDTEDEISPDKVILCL

With `COc1cc(F)ccc1-c1nccc(NCC(=O)Nc2cccc3c2CN(C2CCC(=O)NC2=O)C3=O)n1` (stereo not shown) [Compound 34, N-(2-(2,6-dioxopiperidin-3-yl)-1-oxoisoindolin-4-yl)-2-((2-(4-fluoro-2-methoxyphenyl)pyrimidin-4-yl)amino)acetamide], the “Cellular CRBN-BRD4 dBET6 displacement EC50” value under setting [1] was “inactive; also recorded: Not binding”.

`O=C1CCC(N2Cc3c(Nc4ccnc(Nc5ccc6c(c5)CCC6)n4)cccc3C2=O)C(=O)N1` (stereo not shown) [Compound 24, 3-(4-((2-((2,3-dihydro-1H-inden-5-yl)amino)pyrimidin-4-yl)amino)-1-oxoisoindolin-2-yl)piperidine-2,6-dione]: the EC50 under setting [2] came to 1.35 µM.

In the case of `O=C1CCC(N2Cc3c(Nc4ccnc(Nc5ccc6c(c5)OCCO6)n4)cccc3C2=O)C(=O)N1` (stereo not shown) [Compound 19, 3-(4-((2-((2,3-dihydrobenzo[b][1,4]dioxin-6-yl)amino)pyrimidin-4-yl)amino)-1-oxoisoindolin-2-yl)piperidine-2,6-dione], the EC50 under setting [2] came to 3.63 µM.

On to `COc1ccc(-c2nccc(Nc3cccc4c3CN(C3CCC(=O)NC3=O)C4=O)n2)c(OC)c1` (stereo not shown) [Compound 35, 3-(4-((2-(2,4-dimethoxyphenyl)pyrimidin-4-yl)amino)-1-oxoisoindolin-2-yl)piperidine-2,6-dione], for which, under setting [2], the EC50 stood at 1.86 µM.

For `O=C1CCC(N2Cc3c(Nc4ccnc(Nc5ccc6ccccc6c5)n4)cccc3C2=O)C(=O)N1` (stereo not shown) [Compound 45, 3-(4-((2-(naphthalen-2-ylamino)pyrimidin-4-yl)amino)-1-oxoisoindolin-2-yl)piperidine-2,6-dione], under setting [2], the EC50 was found to be 2.06 µM.

Consider `CC(C)n1cnc2c(Nc3cccc4c3CN(C3CCC(=O)NC3=O)C4=O)nc(Nc3ccc4c(c3)CCC4)nc21` (stereo not shown) [Compound 53, 3-(4-((2-((2,3-dihydro-1H-inden-5-yl)amino)-9-isopropyl-9H-purin-6-yl)amino)-1-oxoisoindolin-2-yl)piperidine-2,6-dione], for which, under setting [2], the EC50 was 0.665 µM.

On to `CC(=O)c1ccc(-c2nccc(Nc3cccc4c3CN(C3CCC(=O)NC3=O)C4=O)n2)cc1` (stereo not shown) [Compound 20, 3-(4-((2-(4-acetylphenyl)pyrimidin-4-yl)amino)-1-oxoisoindolin-2-yl)piperidine-2,6-dione], for which the EC50 under setting [2] amounted to 1.26 µM.

As for `COc1cc(F)ccc1-c1nc(Nc2cccc3c2CN(C2CCC(=O)NC2=O)C3=O)c2nc[nH]c2n1` (stereo not shown) [Compound 49, 3-(4-((2-(4-fluoro-2-methoxyphenyl)-9H-purin-6-yl)amino)-1-oxoisoindolin-2-yl)piperidine-2,6-dione], the EC50 under setting [2] amounted to 12.4 µM.

For `COc1ccccc1Nc1nccc(Nc2cccc3c2CN(C2CCC(=O)NC2=O)C3=O)n1` (stereo not shown) [Compound 38, 3-(4-((2-((2-methoxyphenyl)amino)pyrimidin-4-yl)amino)-1-oxoisoindolin-2-yl)piperidine-2,6-dione], the EC50 under setting [2] turned out to be 2.6 µM.

For `COc1cccc(-c2nccc(Nc3cccc4c3CN(C3CCC(=O)NC3=O)C4=O)n2)c1` (stereo not shown) [Compound 32, 3-(4-((2-(3-methoxyphenyl)pyrimidin-4-yl)amino)-1-oxoisoindolin-2-yl)piperidine-2,6-dione], under setting [2], the EC50 was found to be 4.16 µM.

On to `COc1ccccc1-c1nc(Nc2cccc3c2CN(C2CCC(=O)NC2=O)C3=O)c2nc[nH]c2n1` (stereo not shown) [Compound 47, 3-(4-((2-(2-methoxyphenyl)-9H-purin-6-yl)amino)-1-oxoisoindolin-2-yl)piperidine-2,6-dione], for which the EC50 under setting [2] was 27.1 µM.

Regarding `O=C1CCC(N2Cc3c(Nc4ccnc(N5CCN(c6cccc(C(F)(F)F)c6)CC5)n4)cccc3C2=O)C(=O)N1` (stereo not shown) [Compound 23, 3-(1-oxo-4-((2-(4-(3-(trifluoromethyl)phenyl)piperazin-1-yl)pyrimidin-4-yl)amino)isoindolin-2-yl)piperidine-2,6-dione], the EC50 under setting [3] was found to be 0.66 µM.

Consider `COc1cc(OC)cc(-c2nc(Nc3cccc4c3CN(C3CCC(=O)NC3=O)C4=O)c3nc[nH]c3n2)c1` (stereo not shown) [Compound 51, 3-(4-((2-(3,5-dimethoxyphenyl)-9H-purin-6-yl)amino)-1-oxoisoindolin-2-yl)piperidine-2,6-dione], for which, under setting [2], the EC50 turned out to be 6.83 µM.

As for `O=C1CCC(N2Cc3c(Nc4ccnc(NCCCN5CCCC5=O)n4)cccc3C2=O)C(=O)N1` (stereo not shown) [Compound 22, 3-(1-oxo-4-((2-((3-(2-oxopyrrolidin-1-yl)propyl)amino)pyrimidin-4-yl)amino)isoindolin-2-yl)piperidine-2,6-dione], the “Cellular CRBN-BRD4 dBET6 displacement EC50” value under setting [1] was “inactive; also recorded: Not binding”.

On to `CCN(Cc1ccccc1)c1nccc(Nc2cccc3c2CN(C2CCC(=O)NC2=O)C3=O)n1` (stereo not shown) [Compound 26, 3-(4-((2-(benzyl(ethyl)amino)pyrimidin-4-yl)amino)-1-oxoisoindolin-2-yl)piperidine-2,6-dione], for which the EC50 under setting [3] was found to be 0.67 µM.

Turning to `O=C1CCC(N2Cc3c(Nc4ccnc(N5CCC[C@@H]5CO)n4)cccc3C2=O)C(=O)N1` (stereo partly drawn) [Compound 30, 3-(4-((2-((R)-2-(hydroxymethyl)pyrrolidin-1-yl)pyrimidin-4-yl)amino)-1-oxoisoindolin-2-yl)piperidine-2,6-dione], the EC50 under setting [2] came to 8.15 µM.

With `O=C1CCC(N2Cc3c(Nc4ccnc(-c5ccc(F)cc5)n4)cccc3C2=O)C(=O)N1` (stereo not shown) [Compound 39, 3-(4-((2-(4-fluorophenyl)pyrimidin-4-yl)amino)-1-oxoisoindolin-2-yl)piperidine-2,6-dione], the EC50 under setting [3] worked out at 0.742 µM.

For `O=C1CCC(N2Cc3c(Nc4nc(-c5ccc(-c6ccccc6)cc5)nc5[nH]cnc45)cccc3C2=O)C(=O)N1` (stereo not shown) [Compound 48, 3-(4-((2-([1,1′-biphenyl]-4-yl)-9H-purin-6-yl)amino)-1-oxoisoindolin-2-yl)piperidine-2,6-dione], the EC50 under setting [2] was 12.4 µM.

As to `O=C1CCC(N2Cc3c(Nc4ccnc(-c5ccc(-c6ccccc6)cc5)n4)cccc3C2=O)C(=O)N1` (stereo not shown) [Compound 31, 3-(4-((2-([1,1′-biphenyl]-4-yl)pyrimidin-4-yl)amino)-1-oxoisoindolin-2-yl)piperidine-2,6-dione], the EC50 under setting [2] came out at 8.66 µM.

`COc1ccc(Nc2nccc(Nc3cccc4c3CN(C3CCC(=O)NC3=O)C4=O)n2)cc1` (stereo not shown) [Compound 18, 3-(4-((2-((4-methoxyphenyl)amino)pyrimidin-4-yl)amino)-1-oxoisoindolin-2-yl)piperidine-2,6-dione]: the concentration for a half-maximal effect (EC50) under setting [2] was 2.69 µM.

With `O=C1CCC(N2Cc3c(Nc4ccnc(Nc5ccc6c(c5)CCCC6)n4)cccc3C2=O)C(=O)N1` (stereo not shown) [Compound 52, 3-(1-oxo-4-((2-((5,6,7,8-tetrahydronaphthalen-2-yl)amino)pyrimidin-4-yl)amino)isoindolin-2-yl)piperidine-2,6-dione], the EC50 under setting [3] amounted to 0.46 µM.

Turning to `O=C1CCC(N2Cc3c(Nc4ccnc(Nc5ccccc5F)n4)cccc3C2=O)C(=O)N1` (stereo not shown) [Compound 21, 3-(4-((2-((2-fluorophenyl)amino)pyrimidin-4-yl)amino)-1-oxoisoindolin-2-yl)piperidine-2,6-dione], under setting [2], the EC50 was 2.31 µM.

For `O=C1CCC(N2Cc3c(Nc4ccnc(-c5cc6ccccc6o5)n4)cccc3C2=O)C(=O)N1` (stereo not shown) [Compound 36, 3-(4-((2-(benzofuran-2-yl)pyrimidin-4-yl)amino)-1-oxoisoindolin-2-yl)piperidine-2,6-dione], the EC50 under setting [2] was determined as 2.24 µM.

For the compound `O=C1CCC(N2Cc3c(Nc4ccnc(Nc5ccc6c(c5)CCN6)n4)cccc3C2=O)C(=O)N1` (stereo not shown) [Compound 43, 3-(4-((2-(indolin-5-ylamino)pyrimidin-4-yl)amino)-1-oxoisoindolin-2-yl)piperidine-2,6-dione], under setting [2], the EC50 turned out to be 25.3 µM.

With `NS(=O)(=O)c1ccc(Nc2nccc(Nc3cccc4c3CN(C3CCC(=O)NC3=O)C4=O)n2)cc1` (stereo not shown) [Compound 40, 4-((4-((2-(2,6-dioxopiperidin-3-yl)-1-oxoisoindolin-4-yl)amino)pyrimidin-2-yl)amino)benzenesulfonamide], the “Cellular CRBN-BRD4 dBET6 displacement EC50” value under setting [1] is “inactive; also recorded: Not binding”.

For `Cc1cc(C)c(Nc2nccc(Nc3cccc4c3CN(C3CCC(=O)NC3=O)C4=O)n2)c(C)c1` (stereo not shown) [Compound 28, 3-(4-((2-(mesitylamino)pyrimidin-4-yl)amino)-1-oxoisoindolin-2-yl)piperidine-2,6-dione], under setting [2], the EC50 stood at 3.25 µM.

With `CN(c1ccccc1)c1nccc(Nc2cccc3c2CN(C2CCC(=O)NC2=O)C3=O)n1` (stereo not shown) [Compound 27, 3-(4-((2-(methyl(phenyl)amino)pyrimidin-4-yl)amino)-1-oxoisoindolin-2-yl)piperidine-2,6-dione], the EC50 under setting [2] is 1.25 µM.

Turning to `O=C1CCC(N2Cc3c(Nc4ccnc(NC56CC7CC(CC(C7)C5)C6)n4)cccc3C2=O)C(=O)N1` (stereo not shown) [Compound 44, 3-(4-((2-(((3s,5s,7s)-adamantan-1-yl)amino)pyrimidin-4-yl)amino)-1-oxoisoindolin-2-yl)piperidine-2,6-dione], the EC50 under setting [2] was determined as 0.913 µM.

On to `O=C1CCC(N2Cc3c(Nc4nc(-c5ccc(F)cc5)nc5[nH]cnc45)cccc3C2=O)C(=O)N1` (stereo not shown) [Compound 50, 3-(4-((2-(4-fluorophenyl)-9H-purin-6-yl)amino)-1-oxoisoindolin-2-yl)piperidine-2,6-dione], for which the EC50 under setting [2] turned out to be 8.29 µM.

`CC(C)C(CO)Nc1nccc(Nc2cccc3c2CN(C2CCC(=O)NC2=O)C3=O)n1` [Compound 37, 3-(4-((2-(((R)-1-hydroxy-3-methylbutan-2-yl)amino)pyrimidin-4-yl)amino)-1-oxoisoindolin-2-yl)piperidine-2,6-dione]: the EC50 under setting [2] was determined as 9.74 µM.

`O=C1CCC(N2Cc3c(Nc4ccnc(N5CCC[C@H]5CO)n4)cccc3C2=O)C(=O)N1` (stereo partly drawn) [Compound 29, 3-(4-((2-((S)-2-(hydroxymethyl)pyrrolidin-1-yl)pyrimidin-4-yl)amino)-1-oxoisoindolin-2-yl)piperidine-2,6-dione]: under setting [2], the EC50 came out at 8.14 µM.

In general, EC50 refers to the concentration needed to bring the measured effect to its halfway point.

Values taken from patent publication US11530219B2, “Ligands to cereblon (CRBN)” (DANA-FARBER CANCER INSTITUTE, INC., priority 2018, dated 2022).
